In brackets after ≈: the same amount, converted by molar mass.
Tests used:
Assay in all cases: In vitro antibacterial evaluation: minimum inhibitory concentration (MIC), broth dilution method
Assay type in all cases: cell-based
Enterococcus sp. = tested on: Enterococcus sp.
Procedure: (§1) The minimum inhibitory concentration (MIC), the lowest concentration of the antibiotic which inhibits growth of the test organism, is determined by the broth dilution method using Muller-Hinton II […] (Baltimore Biological Laboratories) following the recommendations of the National Committee for Clinical Laboratory Standards [Methods for dilution antimicrobial susceptibility tests for bacteria that grow aerobically, approved standard M7-A2, National Committee for Clinical Laboratory Standards, Villanova, Pa].
(§2) An inoculum level of 5×10^5 CFU/mL, and a range of antibiotic concentrations (64-0.06 μg/mL) is used. […] The test organisms include a spectrum of Gram-positive bacteria comprised of Staphylococcus sp., Streptococcus sp. and Enterococcus sp. These organisms include recent clinical isolates that are resistant to methicillin, penicillin and/or vancomycin.

Streptococcus sp. = tested on: Streptococcus sp.
Procedure: as §1, §2

Staphylococcus sp. = settings: broth dilution, 18 hours at 35° C.
Procedure: as §1, §2

Escherichia coli = settings: strain GC 4560
Procedure: as §1, §2

## CC(c1ccccc1)C1NC(=O)CNC(=O)C(CO)NC(=O)C(C(O)C2CN(Cc3ccccc3)C(=NCc3ccccc3)N2C2OC(CO)C(O)C(O)C2O)NC(=O)C(C(O)C2CN(Cc3ccccc3)C(=NCc3ccccc3)N2Cc2ccccc2)NC(=O)C(Cc2ccc(OC3OC(CO)C(OC4OC5COC6(OC5C(O)C4O)C4CC5CC(C4)CC6C5)C(O)C3O)cc2)NC1=O (stereo not drawn) [Example 79, Cyclo[glycyl-β-methylphenylalanyl-O-[4-O-[4,6-O-(2-adamantylidene)hexopyranosyl]hexopyranosyl]tyrosyl-3-[1,3-dibenzyl-2-(benzylimino)imidazolidin-4-yl]seryl-3-[1-benzyl-2-(benzylimino)-3-hexopyranosylimidazolidin-4-yl]serylseryl]]
Enterococcus sp.; Enterococcus faecalis (GC 2242), broth dilution, 18 hours at 35° C.
  MIC Enterococcus faecalis (GC 2242): 16 µg/mL (≈ 8.52 µM)
Enterococcus sp.; Enterococcus faecalis (GC 2691), broth dilution, 18 hours at 35° C.
  MIC Enterococcus faecalis (GC 2691): 8 µg/mL (≈ 4.26 µM)
Enterococcus sp.; Enterococcus faecalis (GC 3059), broth dilution, 18 hours at 35° C.
  MIC Enterococcus faecalis (GC 3059): 32 µg/mL (≈ 17 µM)
Enterococcus sp.; strain ATCC 29212
  MIC Enterococcus faecalis (ATCC 29212): 8 µg/mL (≈ 4.26 µM)
Enterococcus sp.; strain GC 2242
  MIC Enterococcus faecalis (GC 2242): 16 µg/mL (≈ 8.52 µM)
Enterococcus sp.; strain GC 2243
  MIC Enterococcus faecium (GC 2243): 8 µg/mL (≈ 4.26 µM)
Enterococcus sp.; strain GC 2691
  MIC Enterococcus faecalis (GC 2691): 8 µg/mL (≈ 4.26 µM)
Enterococcus sp.; strain GC 3059
  MIC Enterococcus faecalis (GC 3059): 32 µg/mL (≈ 17 µM)
Enterococcus sp.; strain GC 4552
  MIC Enterococcus faecalis (GC 4552): 32 µg/mL (≈ 17 µM)
Enterococcus sp.; strain GC 4553
  MIC Enterococcus faecalis (GC 4553): 4 µg/mL (≈ 2.13 µM)
Enterococcus sp.; strain GC 4554
  MIC Enterococcus faecalis (GC 4554): 16 µg/mL (≈ 8.52 µM)
Enterococcus sp.; strain GC 4556
  MIC Enterococcus faecium (GC 4556): 32 µg/mL (≈ 17 µM)
Enterococcus sp.; strain GC 4557
  MIC Enterococcus faecium (GC 4557): 4 µg/mL (≈ 2.13 µM)
Enterococcus sp.; strain GC 4558
  MIC Enterococcus avium (GC 4558): 2 µg/mL (≈ 1.06 µM)
Enterococcus sp.; strain GC 6189
  MIC Enterococcus faecalis (GC 6189): 8 µg/mL (≈ 4.26 µM)
Streptococcus sp.; Streptococcus agalactiae (GC 4564), broth dilution, 18 hours at 35° C.
  MIC Streptococcus agalactiae (GC 4564): 4 µg/mL (≈ 2.13 µM)
Streptococcus sp.; Streptococcus pneumoniae (ATCC 6301), broth dilution, 18 hours at 35° C.
  MIC Streptococcus pneumoniae (ATCC 6301): 4 µg/mL (≈ 2.13 µM)
Streptococcus sp.; Streptococcus pneumoniae (GC 1894), broth dilution, 18 hours at 35° C.
  MIC Streptococcus pneumoniae (GC 1894): 8 µg/mL (≈ 4.26 µM)
Streptococcus sp.; Streptococcus pneumoniae (GC 4565), broth dilution, 18 hours at 35° C.
  MIC Streptococcus pneumoniae (GC 4565): 8 µg/mL (≈ 4.26 µM)
Streptococcus sp.; Streptococcus pyogenes (GC 4563), broth dilution, 18 hours at 35° C.
  MIC Streptococcus pyogenes (GC 4563): 4 µg/mL (≈ 2.13 µM)
Streptococcus sp.; strain ATCC 6301
  MIC Streptococcus pneumoniae (ATCC 6301): 4 µg/mL (≈ 2.13 µM)
Streptococcus sp.; strain GC 1894
  MIC Streptococcus pneumoniae (GC 1894): 8 µg/mL (≈ 4.26 µM)
Streptococcus sp.; strain GC 4563
  MIC Streptococcus pyogenes (GC 4563): 4 µg/mL (≈ 2.13 µM)
Streptococcus sp.; strain GC 4564
  MIC Streptococcus agalactiae (GC 4564): 4 µg/mL (≈ 2.13 µM)
Streptococcus sp.; strain GC 4565
  MIC Streptococcus pneumoniae (GC 4565): 8 µg/mL (≈ 4.26 µM)
Staphylococcus sp.
  MIC Coagulase Negative Staphylococcus (GC 4547): 4 µg/mL (≈ 2.13 µM)
  MIC Coagulase Negative Staphylococcus (GC 4548): 4 µg/mL (≈ 2.13 µM)
  MIC Coagulase Negative Staphylococcus (GC 4549): 2 µg/mL (≈ 1.06 µM)
  MIC Coagulase Negative Staphylococcus (GC 4551): 4 µg/mL (≈ 2.13 µM)
  MIC Coagulase Negative Staphylococcus (GC 6257): 4 µg/mL (≈ 2.13 µM)
  MIC Staphylococcus aureus (ATCC 29213): 4 µg/mL (≈ 2.13 µM)
  MIC Staphylococcus aureus (GC 1131): 8 µg/mL (≈ 4.26 µM)
  MIC Staphylococcus aureus (GC 3051): 4 µg/mL (≈ 2.13 µM)
  MIC Staphylococcus aureus (GC 3053): 4 µg/mL (≈ 2.13 µM)
  MIC Staphylococcus aureus (GC 4541): 4 µg/mL (≈ 2.13 µM)
  MIC Staphylococcus aureus (GC 4542): 4 µg/mL (≈ 2.13 µM)
  MIC Staphylococcus aureus (GC 4544): 8 µg/mL (≈ 4.26 µM)
  MIC Staphylococcus aureus (GC 4545): 4 µg/mL (≈ 2.13 µM)
  MIC Staphylococcus aureus SMITH (GC 4543): 4 µg/mL (≈ 2.13 µM)
  MIC Staphylococcus haemolyticus (GC 4546): 4 µg/mL (≈ 2.13 µM)
Staphylococcus sp.; strain SMITH GC 4543
  MIC Staphylococcus aureus-SMITH (GC 4543): 4 µg/mL (≈ 2.13 µM)
Escherichia coli
  MIC Escherichia coli (GC 4560): 2 µg/mL (≈ 1.06 µM)
